Measured values published in US6569877B2, “Therapeutic and prophylactic agents for neoplasms” (Sankyo Company, Limited, priority 1999, dated 2003).

Assays:
[1] = test system: Human large intestine cancer cells COL-2-JCK; test: Antitumor effects upon human large intestine cancer cells COL-2-JCK (colony formation, crystal violet staining); format: cell-based; settings: 300 cells/well, 10 days incubation, control (0) 3311
Description: Human cancer cells from the large intestine, COL-2-JCK (moderately differentiated adenocarcinoma), purchased from the Central Institute for Experimental Animals, were employed in the Test Example of the present invention as the solid tumor strain. The proliferated CLO-2-JCK cells were cultured and used for the experiments in our laboratory. In order to subculture the strain of the cancer cells and to test compounds in the experiments, the cancer cells were cultured with D-MEM/F-12 culture medium containing bovine fetal serum (manufactured by GIBCO Co.).
The test was carried out as follows: COL-2-JCK cells growed confluently on a petri dish for culture of cells (inner diameter 100 mm) were removed from the petri dish by using EDTA and 0.05% trypsin solution, and diluted to 100 cells/ml cell density with the culture medium. 3 ml of the diluted cell solution was then placed into each well of a 6-well plate (300 cells/well). At the same time, the test compound dissolved in DMSO solution was added so as to be 1, 10, 100 nM, 1 and 10 μM of the final concentrations to each well. The final concentration of the DMSO solution was adjusted to 0.1%. DMSO solution (0.1%) alone was placed in wells of the control group. After addition of the test compound, the cells were incubated in the presence of 5% CO2 gas for 10 days at 37° C. After incubation was terminated, each well containing the cells was washed once with Dulbecco phosphate buffer saline (bivalent ion minus). Then 1 ml of 10% neutral formalin solution containing 0.02% crystal violet was added to the well and left for 5 minutes in order to stain the cells. After the dye was fixed, the cells were washed with water and air-dried. The total colony area (mm^2) of dye-fixed tumor cells was calculated by using an image analyzer of PCA-11 (manufactured by SystemSience Co.).

[2] = test system: Human H69 lung cancer cells; test: Antitumor effect on human H69 lung cancer cells (subcutaneous xenograft in nude mice); format: in vivo; settings: H69 in BALB/c nude mice; 10 mg/kg orally once a day, 24 times; tumor volume on the 39th day after inoculation
Source text: A piece (5 mm×5 mm) of human lung affected by H69 strain of lung cancer was subcutaneously inoculated in a group of 10 BALB/c nude mice (female, 6 weeks old). The test compounds were suspended in 5% emulsified saline containing 2.5% dimethylacetamide. They were orally administered once a day for 24 times in total, i.e., from the first day after the inoculation to the 4th day, from the 7th to the 11th day, from the 14th to the 18th day and from the 21st to the 25th day and from the 28th to the 32nd day after inoculation.
The short diameter (mm) and the long diameter (mm) of the tumor were measured with an electronic digital caliper square on the 39th day after inoculation. The efficacy of the test compound was evaluated by calculation of the inhibitory growth rate of the tumor (GI %) according to the following equation: […]
A: average tumor volume on the 39th day after inoculation in the group treated with the test compound (*)
B: an average tumor volume on the 39th day after inoculation in the non-treated group (*)
*: The tumor volume indicates ½×(long diameter of the tumor)×(short diameter of the tumor)^2.

[3] = test system: Human MKN-74 stomach cancer cells; test: Antitumor effects on human MKN-74 stomach cancer cells (subcutaneous xenograft in nude mice); format: in vivo
Source text: A piece (5 mm×5 mm) of human stomach affected by MKN-74 strain of stomach cancer was subcutaneously inoculated in a group of 10 BALB/c nude mice (female, 6 weeks old). The test compounds were suspended in 5% emulsified saline containing 2.5% dimethylacetamide. They were orally administered once a day for 24 times in total, i.e., from the first day after inoculation to the 4th day, from the 7th to the 11th day, from the 14th to the 18th day, from the 21st to the 25th day and from the 28th to the 32nd day after the inoculation.
The short diameter (mm) and the long diameter (mm) of the tumor were measured with an electronic digital caliper square on the 35th day after inoculation. The efficacy of the test compound was evaluated by calculation of the inhibitory growth rate of the tumor (GI %) in a similar to those described above in Test Example 2.

COc1ccc2nc(COc3ccc(CC4SC(=O)NC4=O)cc3)n(C)c2c1.Cl (centres unmarked) [Example 1, 5-[4-(6-Methoxy-1-methyl-1H-benzimidazol-2-ylmethoxy)benzyl]thiazolidine-2,4-dione hydrochloride]
Total colony area (mm^2) of tumor cells ([1]; final concentration of the test compound 1 nM): 2795 mm^2
Total colony area (mm^2) of tumor cells ([1]; final concentration of the test compound 10 nM): 2018 mm^2
Total colony area (mm^2) of tumor cells ([1]; final concentration of the test compound 100 nM): 1352 mm^2
Total colony area (mm^2) of tumor cells ([1]; final concentration of the test compound 1 μM): 933 mm^2
Total colony area (mm^2) of tumor cells ([1]; final concentration of the test compound 10 μM): 768 mm^2
GI (%) inhibitory growth rate of the tumor [2]: 57%
GI (%) inhibitory growth rate of the tumor ([3]; MKN-74 in BALB/c nude mice, 10 mg/kg orally once a day, 24 times, tumor volume on the 35th day after inoculation): 76%
suppression of proliferation of human stomach cancer cells (in words) ([3]; as shown by Test Example 3): suppressed the proliferation of human stomach cancer cells to a remarkable extent
